The values that follow come from ChEMBL document CHEMBL6103652, “Niacin Ester Derivative of Brefeldin A as a Potential Dual-Target Arf1/BMX Inhibitor for Bladder Cancer” (J Nat Prod, 2025).

Each structure is given as a SMILES string. Calls of active or inactive are those of the source. No cut-off for these calls is given here.

Data set [1] deals with T-24. The data set is described as follows: Induction in apoptosis in human T24 cells assessed as necrotic cells at 0.25 uM incubated for 48 hrs by Annexin V-FITC staining based flow cytometry analysis (reference value: 1.14 %). The format is functional.
A further data set relates to MB49. Briefly: Antitumor activity against mouse MB49 cells implanted in male C57BL/6 mouse model assessed as reduction in tumor volume at 1 mg/kg,iv bid measured after 14 days. Conditions: time 14.0 day. The format is functional, organism-based.
Data set [2] in a line: Selectivity index, ratio of IC50 for cytotoxicity against human LO2 cells to IC50 for antiproliferative activity against human T24 cells. The format is toxicity, cell-based. Conditions: LO2 cells and T24 cells, read-out: Ratio IC50.
Data set [3] is described as follows: AUC(0 to t) in Sprague-Dawley rat at 5 mg/kg, iv measured upto 24 hrs. The format is ADME, organism-based. The following applies: in vivo.
Data set [4] concerns T-24. Briefly: Induction in apoptosis in human T24 cells assessed as late apoptotic cells at 0.5 uM incubated for 48 hrs by Annexin V-FITC staining based flow cytometry analysis (reference value: 4.78 %). The format is functional.
The test system of data set [5] is T-24. The data set is described as follows: Induction of cell cycle arrest in human T24 cells assessed as accumulation of cells at G1 phase at 0.13 uM incubated for 24 hrs by RNase A/Propidium Iodide staining based flow cytometry analysis (reference value: 43.80 %). The format is functional.
The test system of data set [6] is T-24. The data set is described as follows: Induction in apoptosis in human T24 cells assessed as necrotic cells at 0.13 uM incubated for 48 hrs by Annexin V-FITC staining based flow cytometry analysis (reference value: 1.14 %). The format is functional.
In data set [7] the test system is T-24. Briefly: Antiproliferative activity against human T24 cells assessed as inhibition of cell proliferation measured after 72 hrs by MTT assay. The format is functional, cell-based. Conditions: T-24, 72 h.
The nature of data set [8]: Antitumor activity against mouse MB49 cells implanted in male C57BL/6 mouse assessed as reduction in CD133 expression level at 1 mg/kg,iv bid measured after 14 days by immunohistochemical analysis relative to control. The format is functional. More on the design: scale not given: the % may be the effect or the level left. The following applies: time 14 day.
Another data set has as its system Huh-7. Briefly: Antiproliferative activity against human Huh-7 cells assessed as inhibition of cell proliferation measured after 72 hrs by MTT assay. The format is functional, cell-based. Conditions: Huh-7, 72 h.
The subject of data set [9] is T-24. The data set is described as follows: Induction in apoptosis in human T24 cells assessed as early apoptotic cells at 0.5 uM incubated for 48 hrs by Annexin V-FITC staining based flow cytometry analysis (reference value: 3.64 %). The format is functional.
Data set [10] in a line: Volume of distribution at steady state in Sprague-Dawley rat at 5 mg/kg, iv measured upto 24 hrs. The format is ADME, organism-based. The following applies: in vivo, read-out: Vdss.
In data set [11] the test system is T-24. The data set is described as follows: Inhibition of cell migration in human T24 cells at 0.125 uM incubated for 12 hrs by scratch assay (reference value: 66 %). The format is functional. The following applies: T-24, 12 h.
For data set [12], the system named is T-24. The data set is described as follows: Antiproliferative activity against human T24 cells assessed as inhibition of cell proliferation at 0.25 uM incubated for 120 hrs by MTT assay relative to control. The format is functional.
In data set [13] the target is Signal transducer and activator of transcription 3 (Homo sapiens) (UniProt P40763). Briefly: Inhibition of STAT3 phosphorylation in human T24 cells incubated for 24 hrs by Western blotting analysis. Conditions: dose 0.13-0.5 µM. The format is cell-based.
For data set [14], the system named is T-24. Briefly: Induction in apoptosis in human T24 cells assessed as early apoptotic cells at 0.13 uM incubated for 48 hrs by Annexin V-FITC staining based flow cytometry analysis (reference value: 3.64 %). The format is functional.

Chain of Signal transducer and activator of transcription 3 (Homo sapiens) (P40763 whole entry): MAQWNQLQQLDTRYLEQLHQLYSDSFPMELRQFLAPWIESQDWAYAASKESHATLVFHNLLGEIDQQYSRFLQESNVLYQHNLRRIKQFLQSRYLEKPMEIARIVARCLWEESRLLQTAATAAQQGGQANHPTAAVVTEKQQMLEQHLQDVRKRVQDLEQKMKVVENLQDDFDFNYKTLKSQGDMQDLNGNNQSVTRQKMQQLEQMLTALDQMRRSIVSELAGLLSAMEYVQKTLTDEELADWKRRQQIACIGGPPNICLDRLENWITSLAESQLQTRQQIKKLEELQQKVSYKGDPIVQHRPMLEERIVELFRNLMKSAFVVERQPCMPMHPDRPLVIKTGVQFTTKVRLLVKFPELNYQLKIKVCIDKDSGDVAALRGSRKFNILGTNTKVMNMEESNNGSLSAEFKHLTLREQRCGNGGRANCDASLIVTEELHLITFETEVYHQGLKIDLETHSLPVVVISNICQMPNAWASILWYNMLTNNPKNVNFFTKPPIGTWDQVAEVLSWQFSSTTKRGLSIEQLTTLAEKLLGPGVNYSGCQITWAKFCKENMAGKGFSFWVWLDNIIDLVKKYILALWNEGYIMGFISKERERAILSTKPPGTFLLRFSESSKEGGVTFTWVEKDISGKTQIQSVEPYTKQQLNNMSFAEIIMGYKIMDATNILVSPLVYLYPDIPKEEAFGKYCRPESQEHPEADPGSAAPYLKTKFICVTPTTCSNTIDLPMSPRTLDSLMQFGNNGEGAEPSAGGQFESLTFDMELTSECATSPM

For `C[C@H]1CCC/C=C/[C@@H]2C[C@H](O)C[C@H]2[C@H](OC(=O)c2cccnc2)/C=C/C(=O)O1`, the Activity with T-24 [1] is 3.33%; in the data set on T-24 [4], 24.81%; with T-24 [5] it was 47.36%; in the data set on T-24 [6], 0.91%; in [8], 61%; in the data set with T-24 [9], 6.11%. Moreover, the Activity with T-24 [14] stood at 5.52%. The outcome in the data set on MB49 was Active. Besides, the selectivity ratio in [2] was found to be 3.59. In data set [3], this compound showed an AUC(0-t) at 24 h of 1350 ng·h/mL. The IC50 amounted to 220 nM with T-24 [7] and 1000 nM in the data set with Huh-7. The Vd in data set [10] turned out to be 0.59 L/kg. In the data set with T-24 [11], this compound displayed a wound closure at 0.125 µM of 22%. Further, the inhibition at 0.25 µM in the data set with T-24 [12] turned out to be 91%. Further, the inhibition entry in [13] was “Dose-dependent-effect”.
